In patent US20100286139A1, “AMINO PYRAZOLE COMPOUND” (ELI LILLY AND COMPANY, priority 2008, published 2010):

Target: T1, JAK2 (Homo sapiens, UniProt O60674)
T1 construct: endogenous in cells; host or cells: TF-1 (human erythroid leukemia) cells, EPO-stimulated
Assay: JAK2 EPO-TF1/pSTAT5 cell-based assay (Cellomics ArrayScan HCS)
Conditions: TF-1 cells, EPO 1.6 U/mL stimulated, n=4; read-out: relative IC50, inhibition of pSTAT5
Excerpt: JAK2 EPO-TF1/pSTAT5 cell-based assay mimics the constitutive activation of JAK2-STAT5 in erythroid progenitor cells, which drives the overproduction of red blood cells, a marker of polycythemia vera (PV).
TF-1 (human erythroid leukemia) cells are maintained in RPMI 1640 (RPMI-1640 was developed by Moore et. al. at Roswell Park Memorial Institute. The formulation is based on the RPMI-1630 series of media utilizing a bicarbonate buffering system and alterations in the amounts of amino acids and vitamins.) with 10% fetal bovine serum (FBS), 0.075% sodium bicarbonate, 1 mM sodium pyruvate, 1× antibiotic/antimycotic (Invitrogen, Carlsbad, Calif.) and 0.45% glucose. The medium is supplemented with GM-CSF (granulocyte-macrophage colony-stimulating factor) at a final concentration of 2 ng/mL. Cells are kept at 37° C. with 5% CO2. Cells are starved in serum free medium to remove endogenous growth factors. TF-1 cells are counted and cells are collected to seed 2×10^7 cells per 96-well plate at a density of 2×10^5 cells per well. […]
To perform the assay, serum-starved cells are collected and washed once with unsupplemented RPMI 1640 medium. […] An aliquot of 200 μL of 1 to 10 dilution of Mouse anti-pSTAT5 (pY694) Alexa Fluor 647® in fluorescence activated cell sorting (FACS) buffer is added to the cells. […]

T1 sequence (O60674 whole entry): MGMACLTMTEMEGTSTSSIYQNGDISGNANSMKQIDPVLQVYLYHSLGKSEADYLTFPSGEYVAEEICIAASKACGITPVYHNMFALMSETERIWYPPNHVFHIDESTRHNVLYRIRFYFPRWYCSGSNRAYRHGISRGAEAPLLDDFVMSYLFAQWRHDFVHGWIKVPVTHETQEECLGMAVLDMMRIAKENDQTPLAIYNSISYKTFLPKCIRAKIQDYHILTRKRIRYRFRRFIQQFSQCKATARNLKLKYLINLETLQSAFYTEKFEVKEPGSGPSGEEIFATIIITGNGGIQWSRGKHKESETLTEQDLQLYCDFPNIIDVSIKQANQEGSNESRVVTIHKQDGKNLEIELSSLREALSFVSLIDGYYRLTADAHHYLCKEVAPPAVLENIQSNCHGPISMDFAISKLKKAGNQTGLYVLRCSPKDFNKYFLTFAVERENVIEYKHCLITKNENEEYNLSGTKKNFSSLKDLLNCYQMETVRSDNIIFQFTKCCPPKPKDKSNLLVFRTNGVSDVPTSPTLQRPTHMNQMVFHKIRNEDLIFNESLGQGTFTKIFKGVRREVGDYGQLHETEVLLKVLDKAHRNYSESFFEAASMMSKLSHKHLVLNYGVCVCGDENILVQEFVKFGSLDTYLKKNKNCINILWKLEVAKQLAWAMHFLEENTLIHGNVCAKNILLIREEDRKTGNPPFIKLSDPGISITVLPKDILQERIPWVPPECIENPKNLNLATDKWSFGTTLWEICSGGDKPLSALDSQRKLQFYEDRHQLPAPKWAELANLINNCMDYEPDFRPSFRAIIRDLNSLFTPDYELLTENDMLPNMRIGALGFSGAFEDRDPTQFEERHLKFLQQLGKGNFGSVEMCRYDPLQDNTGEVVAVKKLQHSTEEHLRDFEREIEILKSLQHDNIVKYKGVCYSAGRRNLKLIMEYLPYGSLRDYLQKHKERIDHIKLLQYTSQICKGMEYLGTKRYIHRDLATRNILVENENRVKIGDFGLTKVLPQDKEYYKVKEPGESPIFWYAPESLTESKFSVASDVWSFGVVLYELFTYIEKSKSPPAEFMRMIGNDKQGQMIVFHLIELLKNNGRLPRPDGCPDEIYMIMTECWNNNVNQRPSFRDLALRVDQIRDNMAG

- IC50: 33 nM
SMILES: Cc1cc(Nc2cc(CN3CCOCC3)c3nc(C)c(Cc4ccc(Cl)cc4F)n3n2)n[nH]1 [3-(4-Chloro-2-fluorobenzyl)-2-methyl-N-(5-methyl-1H-pyrazol-3-yl)-8-(morpholinomethyl)imidazo[1,2-b]pyridazin-6-amine]
